Reference: a melting point compilation (Tetko et al.; mined from patent text by program, amines drawn as free bases though some values may be those of a salt)

SMILES | melting point
COc1ccc(N2CCN(c3c(C)c(C)c4c(c3C(C)C)CC(C)(C)O4)CC2)cc1 | 192 to 194 °C
C=Cc1cc(OCOCCOC)c(OCOCCOC)c(Cl)c1Cl | 60 °C
CNC(=O)Nc1cc(C(C)(C)C)c2c(c1)C(C)(C)CO2 | 193 to 194 °C
CCOC(=O)C(CCc1ccccc1)(NC(C)=O)C(=O)OCC | 115 to 117 °C
c1cncc(-n2cnnn2)c1 | 74 to 76 °C
Cn1nc2ccc(NCCCN3CCC(OC(c4ccccc4)c4ccccc4)CC3)nn2c1=O | 171 to 172 °C
N#CN=CNCc1cc(Cl)nc(Cl)c1 | 160 °C
Cc1ncccc1NC(=NC#N)NC(NC(=O)CCCc1cccs1)C(C)(C)C (stereo not given) | 66 to 68 °C
CCCc1ccc(-n2nc(Cl)cc2-c2ccc(S(C)(=O)=O)cc2)cc1 | 143 to 144 °C
Nc1nonc1-c1nc2ccccc2n1COc1ccc(F)cc1 | 155 to 158 °C
CCCCCCCOc1ccc(C(=O)O)cc1OCCCCCCC | 122 to 123 °C
CC(C)(Cn1cncn1)C(=O)C=Cc1ccc2ccccc2c1 | 103 to 104 °C
NC(=S)NN=C(CCCOC(=O)Nc1cccc2ccccc12)c1ccccc1 | 189 to 192 °C
CCc1cc(C(F)(C(F)(F)F)C(F)(F)F)cc(C)c1NC(=O)c1cccc(N=S=O)c1 | 100 to 108 °C
CN(C)CCSc1cc(NC(=O)OC(C)(C)C)c(N)cc1C#Cc1ccccc1 | 115 to 117 °C
CCCCCNc1cc(C(=O)OCCCCC)cc(S(N)(=O)=O)c1Oc1ccccc1 | 138 to 139 °C
CCCCc1nn(-c2cc(NC(=O)c3ccccc3)ccc2Br)c(=O)n1Cc1ccc(-c2ccccc2S(=O)(=O)NC(=O)OC(C)(C)C)cc1F | 130 to 133 °C
O=c1[nH]c(=O)c2ccsc2[nH]1 | > 300 °C
CN1CCN(c2nc(-c3ccccc3Cl)c3cc([N+](=O)[O-])ccc3n2)CC1 | 204 °C
CCOC(=O)/C=C/c1cc(Br)ccc1N(C)Cc1cnn(C)c1 | 67 to 68 °C

SMILES | melting point
CNC(=O)C=C1CC2(CCCC2)c2ccccc21 | 178 °C
Cc1c(Cc2cccnc2)oc2ccc(Br)cc12 | 57 to 58 °C
Cc1cccc(C2=C(c3ccc(F)c(-c4cn[nH]c4)c3)NN(C(C)C)C2)n1 | 129 to 136 °C
O=C(O)C(Cc1ccc(OCCn2c(=O)sc3cc(C(=NO)C4CC4)ccc32)cc1)OCC(F)(F)F (stereo not given) | 88 to 90 °C
C=C1C(=O)OC2OC3(C)CCC4C(C)CCC1C24OO3 (stereo not given) | 161 to 162 °C
COc1ccc(C(=O)Nc2ccccc2)cc1NC(=S)Nc1ccc(OC)c(OC)c1 | 170 to 171 °C
CC(=O)NC[C@H]1CN(c2ccc(N3CCC(n4cc(C#N)nn4)CC3)c(F)c2)C(=O)O1 | 148 to 150 °C
COc1cc(OC)c(Br)cc1O | 78 to 80 °C
COc1cc2c(cc1OC)CCC(/C=C/C(=N)NO)=C2 | 199 to 203 °C
CC1(C)CCN(c2ccc(-c3nc(C(=O)Nc4nccs4)c(-c4ccc(Cl)cc4)[nH]3)cc2)CC1 | 150 to 154 °C
CCOC(=O)C(O)=CC(=O)c1c[nH]c2ccccc12 | > 300 °C
COc1ccc2[nH]c(C)c(/C=C/C(=O)c3ccncc3)c2c1 | 256 to 259 °C
O=C(O)c1c(Cl)c(Cl)cc([N+](=O)[O-])c1Cl | 149 to 151 °C
CCOC(=O)c1ccc(N2CCN(C(=O)N(CC)CC)CC2)cc1 | 77 to 82 °C
Cn1c(C(=O)c2ccc(F)cc2)cc2cc(Br)ccc21 | 162 to 164 °C
CC(=O)N1Cc2nc(Cl)nc(Nc3ccc(F)c(Cl)c3)c2N=C1Cl | 178 °C
CC1(C)OC(=O)C(Oc2ccc3ncccc3c2)=C1c1ccc(S(C)(=O)=O)cc1 | 171 to 172 °C
CCCCCCCCCCCCCCCCCC(=O)N1CC1C#N (stereo not given) | 85 to 88 °C
BrCc1ccc2ncoc2c1 | 52 to 56 °C
COc1cc2c(cc1Nc1ncc(Cl)c(N[C@H]3[C@@H](C(N)=O)[C@@H]4C=C[C@H]3C4)n1)CCN(CC(C)O)CC2 (stereo not given in full) | 120 °C
